According to ChEMBL document CHEMBL4613212, “Insights of synthetic analogues of anti-leprosy agents” (Bioorg Med Chem, 2019):
In brackets after ≈: the same amount, converted by molar mass.

What was measured:
Mycobacterium leprae [1] = assay: Anti-leprotic activity against Mycobacterium leprae infected in 538 CBA mouse assessed as number of Mycobacterium leprae in paw pads at 2 mg/kg administrated via gastric tube 5 times a week and measured 7 months post infection; type: functional
Mycobacterium leprae [2] = assay: Anti-leprotic activity against Mycobacterium leprae infected in 538 CBA mouse assessed as number of Mycobacterium leprae in paw pads at 6 mg/kg administrated via gastric tube 5 times a week and measured 7 months post infection; type: functional
[3] = tested on: Mycolicibacterium smegmatis; assay: Antimicrobial activity against Mycobacterium smegmatis incubated for 24 hrs by broth microdilution assay; type: functional
Mycolicibacterium aurum = assay: Antimicrobial activity against Mycobacterium aurum incubated for 24 hrs by broth microdilution assay; type: functional
Mycolicibacterium vaccae = assay: Antimicrobial activity against Mycobacterium vaccae incubated for 24 hrs by broth microdilution assay; type: functional
[4] = tested on: Mycolicibacterium fortuitum; assay: Antimicrobial activity against Mycobacterium fortuitum incubated for 24 hrs by broth microdilution assay; type: functional
Monocyte [5] = assay: Antiinflammatory activity in human monocytes assessed as inhibition of LPS-induced TNFaplha production at 50 uM preincubated for 15 mins followed by LPS addition and measured after 4 hrs by ELISA relative to control; type: functional
[6] = Cytotoxicity against LPS-induced human monocytes assessed as cell viability at 50 uM by tryphan blue staining based assay relative to control; parameters: species or system Monocyte; conditions: read-out: Activity
Plasmodium berghei = assay: Antimalarial activity against Plasmodium berghei infected in albino mouse assessed survival against infection at 400 mg/kg, sc administered as single dose; type: functional
Mycobacterium leprae [7] = assay: Anti-leprotic activity against Mycobacterium leprae infected in albino mouse assessed survival against infection at 400 mg/kg, sc administered 58 days post-infection and subsequent compound dosing at 200 mg/kg at 0.5, 1 or 2 months interval; type: functional
[8] = Drug excretion in rat urine at 400 mg/kg, sc administered as single dose measured after 30 days; type: ADME, organism-based; conditions: read-out: Drug excretion
[9] = Half life in rat at 400 mg/kg, sc administered as single dose; type: ADME, organism-based; conditions: in vivo
Monocyte [10] = assay: Antiinflammatory activity in human monocytes assessed as inhibition of LPS-induced TNFaplha production at 25 uM preincubated for 15 mins followed by LPS addition and measured after 4 hrs by ELISA relative to control; type: functional
[11] = tested on: Mycolicibacterium smegmatis; assay: Antimycobacterial activity against Mycobacterium smegmatis mc2 155 incubated for 2 days by spectrophotometric based assay; type: functional; conditions: MC2 155, 48 h
[12] = Drug concentration in rat blood at 400 mg/kg, sc administered as single dose; type: ADME, organism-based; conditions: in vivo
Rattus norvegicus = assay: Effect of metallo-protein haemoglobin in rat assessed as peak methemoglobin level at 400 mg/kg, sc administered as single dose; type: ADME, organism-based; conditions: in vivo
[13] = Inhibition of Mycobacterium smegmatis ATCC 607 dihydrofolic reductase; parameters: species or system Mycolicibacterium smegmatis
[14] = tested on: Mycolicibacterium smegmatis; assay: Inhibition of Mycobacterium smegmatis ATCC 607 dihydrofolic reductase assessed as ratio of Km to Ki
[15] = tested on: Mycolicibacterium smegmatis; assay: Antimicrobial activity against Mycobacterium smegmatis ATCC 607; type: functional; conditions: Mycolicibacterium smegmatis, ATCC 607; read-out: MIC

COc1cc(Oc2cnc(N)nc2N)cc(OC)c1Br
Activity (Mycobacterium leprae [1]): 1.27 ×10⁷ No_unit | Activity (Mycobacterium leprae [2]): 0.56 ×10⁷ No_unit

COc1ncnc(SC(=S)N2CCCC2)c1[N+](=O)[O-]
MIC [3]: 3.12 µg/mL (≈ 10.4 µM) | MIC (Mycolicibacterium aurum): 1.56 µg/mL (≈ 5.19 µM) | MIC (Mycolicibacterium vaccae): 0.8 µg/mL (≈ 2.66 µM) | MIC [4]: 1.56 µg/mL (≈ 5.19 µM) | Activity (Mycobacterium leprae [1]): 0.07 ×10⁷ No_unit | Activity (Mycobacterium leprae [2]): 0.029 ×10⁷ No_unit

CCC1(N2C(=O)c3c(F)c(F)c(F)c(F)c3C2=O)C(=O)NC(=O)N(c2ccccc2)C1=O (stereo unspecified)
inhibition at 50 µM (Monocyte [5]): 16% | viability at 50 µM [6]: 68%

CC(=O)Nc1ccc(S(=O)(=O)c2ccc(N(C)C(C)=O)cc2)cc1
Survival (Plasmodium berghei): 6 weeks | Survival (Mycobacterium leprae [7]): >8 weeks | dose excreted at 720 h [8]: 44% | half-life [9]: 27 days

O=C1CCC(N2C(=O)c3ccccc3C2=O)C(=O)N1 (stereo unspecified) [THALIDOMIDE]
inhibition at 50 µM (Monocyte [5]): 15% | inhibition at 25 µM (Monocyte [10]): < 10% | viability at 50 µM [6]: 98%

O=C1c2ccccc2C(=O)N1c1ccc(S(=O)(=O)Nc2ccncn2)cc1
MIC99 [11]: 2300 µM (≈ 875 µg/mL)

CC(=O)Nc1ccc(S(=O)(=O)c2ccc(NC(C)=O)c(C)c2)cc1
Survival (Plasmodium berghei): 9 weeks | Survival (Mycobacterium leprae [7]): >8 weeks | dose excreted at 720 h [8]: 31% | half-life [9]: 35 days | Drug uptake [12]: 0.7 µg/mL | Activity (Rattus norvegicus): 1 g/dL

CN(C)c1ncnc(SC(=S)N2CCCC2)c1[N+](=O)[O-]
MIC [3]: 3.12 µg/mL (≈ 9.96 µM) | MIC (Mycolicibacterium aurum): 3.12 µg/mL (≈ 9.96 µM) | MIC (Mycolicibacterium vaccae): 1.56 µg/mL (≈ 4.98 µM) | MIC [4]: 1.56 µg/mL (≈ 4.98 µM) | Activity (Mycobacterium leprae [1]): 4.43 ×10⁷ No_unit | Activity (Mycobacterium leprae [2]): 2.14 ×10⁷ No_unit

O=C1c2c(F)c(F)c(F)c(F)c2C(=O)N1c1ccc(F)c(F)c1
inhibition at 50 µM (Monocyte [5]): < 10% | viability at 50 µM [6]: 74%

CCCCCCCCC(COC1CCCC1)C(=O)O (stereo unspecified)
MIC99 [11]: 3600 µM (≈ 973 µg/mL)

COc1cc(Cc2cnc3nc(N)nc(N)c3n2)cc(OC)c1OC
Ki [13]: 5 nM | Ratio [14]: 230 | MIC [15]: 347 µM (≈ 119 µg/mL)

CCCCCc1cnc2nc(N)nc(N)c2n1
Ki [13]: 1.2 nM | Ratio [14]: 3420 | MIC [15]: 862 µM (≈ 200 µg/mL)

Nc1ccc(F)c(F)c1
inhibition at 50 µM (Monocyte [5]): 19% | viability at 50 µM [6]: 99%

O=C1c2ccccc2C(=O)N1c1cnc(S(=O)(=O)Nc2ccccn2)cn1
MIC99 [11]: 3000 µM (≈ 1140 µg/mL)

CC(C)CCc1cnc2nc(N)nc(N)c2n1
Ki [13]: 1 nM | Ratio [14]: 4100 | MIC [15]: 775 µM (≈ 180 µg/mL)

N#Cc1cc([N+](=O)[O-])cnc1SC(=S)N1CCCCC1
MIC [3]: 3.12 µg/mL (≈ 10.1 µM) | MIC (Mycolicibacterium aurum): 1.56 µg/mL (≈ 5.06 µM) | MIC (Mycolicibacterium vaccae): 1.56 µg/mL (≈ 5.06 µM) | MIC [4]: 1.56 µg/mL (≈ 5.06 µM)

CCc1nc(N)nc(N)c1-c1ccc(Cl)cc1 [PYRIMETHAMINE]
Ki [13]: 75 nM | Ratio [14]: 0.8 | MIC [15]: 101 µM (≈ 25.1 µg/mL)

Nc1nc(N)c2nc(CNc3ccc(C(=O)N[C@@H](CCC(=O)O)C(=O)O)cc3)cnc2n1 [AMINOPTERIN]
Ki [13]: 0.18 nM | Ratio [14]: 23100 | MIC [15]: 742 µM (≈ 327 µg/mL)

COc1cc(CCc2cnc3nc(N)nc(N)c3n2)cc(OC)c1OC
Ki [13]: 18 nM | Ratio [14]: 2050 | MIC [15]: > 281 µM

O=C1c2c(F)c(F)c(F)c(F)c2C(=O)N1c1cn(-c2ccccc2)c(=O)[nH]c1=O
inhibition at 50 µM (Monocyte [5]): < 10% | viability at 50 µM [6]: 95%

N#Cc1cc([N+](=O)[O-])cnc1SC(=S)N1CCCCCC1
MIC [3]: 1.56 µg/mL (≈ 4.84 µM) | MIC (Mycolicibacterium aurum): 1.56 µg/mL (≈ 4.84 µM) | MIC (Mycolicibacterium vaccae): 0.4 µg/mL (≈ 1.24 µM) | MIC [4]: 0.8 µg/mL (≈ 2.48 µM) | Activity (Mycobacterium leprae [1]): 6.64 ×10⁷ No_unit | Activity (Mycobacterium leprae [2]): 0.28 ×10⁷ No_unit

O=C1c2ccccc2C(=O)N1c1ccc(S(=O)(=O)Nc2cnccn2)cc1
MIC99 [11]: 6800 µM (≈ 2590 µg/mL)

CC(=O)N(C)c1ccc(S(=O)(=O)c2ccc(N(C)C(C)=O)cc2)cc1
Survival (Plasmodium berghei): 9 weeks | Survival (Mycobacterium leprae [7]): >8 weeks | dose excreted at 720 h [8]: 85% | half-life [9]: 10 days

Nc1nc(N)c2nc(Cc3ccc(Cl)c(Cl)c3)cnc2n1
Ki [13]: 2 nM | Ratio [14]: 58.5 | MIC [15]: > 311 µM

O=C1c2ccccc2C(=O)N1c1ccc(S(=O)(=O)Nc2ccccn2)cn1
MIC99 [11]: 6100 µM (≈ 2320 µg/mL)

CC(=O)Nc1ccc(S(=O)(=O)c2ccc(NC(C)=O)cc2)cc1 [ACEDAPSONE]
Survival (Plasmodium berghei): 12 weeks | Survival (Mycobacterium leprae [7]): >8 weeks | dose excreted at 720 h [8]: 7% | half-life [9]: > 200 days | Drug uptake [12]: 0.2 µg/mL | Activity (Rattus norvegicus): 0 g/dL

O=C1c2c(F)c(F)c(F)c(F)c2C(=O)N1c1cnc(O)nc1O
inhibition at 50 µM (Monocyte [5]): < 10% | viability at 50 µM [6]: 95%

CC(=O)Nc1ccc(S(=O)(=O)c2ccc(/N=C/c3ccc(/C=N/c4ccc(S(=O)(=O)c5ccc(NC(C)=O)cc5)cc4)cc3)cc2)cc1
Survival (Plasmodium berghei): 5 - 7 weeks | Survival (Mycobacterium leprae [7]): >8 weeks | dose excreted at 720 h [8]: 40% | half-life [9]: 55 days | Drug uptake [12]: 0.4 µg/mL | Activity (Rattus norvegicus): 0.2 g/dL

N#Cc1cc([N+](=O)[O-])cnc1SC(=S)N1CCCC1
MIC [3]: 3.12 µg/mL (≈ 10.6 µM) | MIC (Mycolicibacterium aurum): 1.56 µg/mL (≈ 5.3 µM) | MIC (Mycolicibacterium vaccae): 1.56 µg/mL (≈ 5.3 µM) | MIC [4]: 1.56 µg/mL (≈ 5.3 µM) | Activity (Mycobacterium leprae [1]): 0.56 ×10⁷ No_unit | Activity (Mycobacterium leprae [2]): 0.28 ×10⁷ No_unit

CN(Cc1cnc2nc(N)nc(N)c2n1)c1ccc(C(=O)N[C@@H](CCC(=O)O)C(=O)O)cc1 [METHOTREXATE]
Ki [13]: 0.35 nM | Ratio [14]: 11700 | MIC [15]: 2200 µM (≈ 1000 µg/mL)

NC(=O)c1cc([N+](=O)[O-])cc([N+](=O)[O-])c1SC(=S)N1CCCC1
MIC [3]: 50 µg/mL (≈ 140 µM) | MIC (Mycolicibacterium aurum): 6.25 µg/mL (≈ 17.5 µM) | MIC (Mycolicibacterium vaccae): 0.4 µg/mL (≈ 1.12 µM) | MIC [4]: 6.25 µg/mL (≈ 17.5 µM)

COc1cc(Sc2cnc(N)nc2N)cc(OC)c1Br
Activity (Mycobacterium leprae [1]): 0.66 ×10⁷ No_unit | Activity (Mycobacterium leprae [2]): 0.02 ×10⁷ No_unit

Cc1cnc2nc(N)nc(N)c2n1
Ki [13]: 5100 nM | Ratio [14]: 0.8 | MIC [15]: > 568 µM

COc1cc(Cc2cnc(N)nc2N)cc(OC)c1OC [TRIMETHOPRIM]
Ki [13]: 70 nM | Ratio [14]: 54.6 | MIC [15]: 34 µM (≈ 9.87 µg/mL)

CCC1(N2C(=O)c3ccccc3C2=O)C(=O)NC(=O)N(C2CCCCC2)C1=O (stereo unspecified)
inhibition at 50 µM (Monocyte [5]): < 10% | viability at 50 µM [6]: 87%

CCCCc1cnc2nc(N)nc(N)c2n1
Ki [13]: 1 nM | Ratio [14]: 4100 | MIC [15]: 917 µM (≈ 200 µg/mL)

CCCCCCCCC(CCC1CCCO1)C(=O)O (stereo unspecified)
MIC99 [11]: 9600 µM (≈ 2600 µg/mL)
